Measured values reported in ChEMBL document CHEMBL1201862, “PubChem BioAssay data set” (2004).
Active and inactive are the calls of the source.

Columns and labels:
[1] = molecular target: Sphingosine 1-phosphate receptor 2 (Homo sapiens, UniProt O95136); assay: Dose Response Cell Based Assay for Agonists of the S1P2 Receptor of Purchased Analogues. [Related pubchem assays: 729, 843, 854, 736 ]; format: functional
[2] = Luminescence-based counterscreen assay for KLF5 inhibitors: dose response cell-based high throughput screening assay to identify cytotoxic compounds using the IEC-6 intestinal epithelial cell line. [Related pubchem assays: 1700 (Primary screen.), 1834 (Confirmation screen.), 1858 (Summary AID.), 1905 (Counterscreen.)]; format: functional
[3] = luciferase reporter signal suppression in cells – H4 neuroglioma cells, luminescence, dose response (AID 1990); format: functional, cell-based
[4] = luciferase reporter signal reduction – luminescence, H4-C neuroglioblastoma cells, dose response (AID 2458); format: functional, cell-based;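 also: H4 neuroglioblastoma cells stably carrying a luciferase reporter gene fusion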
[5] = tested on: Streptococcus sp. 'group A'; assay: Streptococcus pyogenes SK(-)GAS viability under kanamycin – luminescence, BacTiterGlo, confirmation, counter-screen for streptokinase expression inhibitor project, dose response (AID 1900); format: functional, organism-based
[6] = cells; format: functional, cell-based
[7] = alpha-synuclein stem-loop luciferase translation blockers – H4 neuroglioma cells, luminescence, confirmation (AID 1988); format: functional, cell-based
[8] = molecular target: T1, Streptokinase A (Streptococcus pyogenes serotype M1, UniProt P10520); assay: viability-normalized secreted streptokinase activity reduction – plasminogen activation absorbance, OD405, dose response (AID 1914); format: functional, Streptococcus pyogenes M1 GAS;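 also: secreted streptokinase activity via plasminogen activation per viability signal from cell pellet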
T1 sequence (P10520 whole entry): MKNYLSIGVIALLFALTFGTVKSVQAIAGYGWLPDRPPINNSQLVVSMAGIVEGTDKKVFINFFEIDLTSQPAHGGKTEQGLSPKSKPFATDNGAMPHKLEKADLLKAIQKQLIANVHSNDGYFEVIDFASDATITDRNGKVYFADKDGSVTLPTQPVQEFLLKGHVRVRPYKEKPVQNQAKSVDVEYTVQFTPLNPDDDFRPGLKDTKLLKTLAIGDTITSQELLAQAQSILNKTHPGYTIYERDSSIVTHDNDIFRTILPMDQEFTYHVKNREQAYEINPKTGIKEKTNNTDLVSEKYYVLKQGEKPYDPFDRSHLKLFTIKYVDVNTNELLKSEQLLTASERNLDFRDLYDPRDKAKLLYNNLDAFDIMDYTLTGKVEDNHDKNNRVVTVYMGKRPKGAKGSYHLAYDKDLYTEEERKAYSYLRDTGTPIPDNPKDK

[9] = molecular target: T2, Estrogen receptor (Homo sapiens, UniProt P03372);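 also: potency for inhibiting coactivator peptide recruitment to the receptor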
T2 sequence (P03372 whole entry): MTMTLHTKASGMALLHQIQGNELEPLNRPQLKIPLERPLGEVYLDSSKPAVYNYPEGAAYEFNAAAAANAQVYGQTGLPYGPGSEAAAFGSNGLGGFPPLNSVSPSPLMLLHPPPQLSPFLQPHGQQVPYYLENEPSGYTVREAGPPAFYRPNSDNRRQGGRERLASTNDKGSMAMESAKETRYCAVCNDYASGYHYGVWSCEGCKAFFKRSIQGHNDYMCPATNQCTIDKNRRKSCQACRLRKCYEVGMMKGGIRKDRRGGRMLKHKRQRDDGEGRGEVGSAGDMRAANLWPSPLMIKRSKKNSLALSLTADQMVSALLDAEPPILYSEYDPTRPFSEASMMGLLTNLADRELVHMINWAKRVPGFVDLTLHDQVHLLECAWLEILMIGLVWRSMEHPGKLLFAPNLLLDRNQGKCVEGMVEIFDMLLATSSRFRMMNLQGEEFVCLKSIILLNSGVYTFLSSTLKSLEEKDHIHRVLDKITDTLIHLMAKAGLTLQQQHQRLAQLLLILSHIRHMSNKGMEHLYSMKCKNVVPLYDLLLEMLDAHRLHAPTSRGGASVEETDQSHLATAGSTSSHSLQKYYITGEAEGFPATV

[10] = tested on: Streptococcus; assay: GAS UMAA2166 growth inhibition – luminescence, BacTiterGlo, counter-screen for streptokinase expression inhibitor project, dose response (AID 1915); format: functional, organism-based;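 also: potency for reduction of bacterial viability or growth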
[11] = alpha-synuclein stem-loop translation blockers – luminescence, H4 neuroglioblastoma cells, dose confirmation, confirmation (AID 2454); format: functional, cell-based;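 also: H4 neuroglioblastoma cells carrying an alpha-synuclein 5'UTR luciferase reporter; potency for inhibition of the luciferase signal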
[12] = mitochondrial function rescue without frataxin homolog – Friedreich's ataxia, plus single-dose screen, dose response (AID 1465); format: functional;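 also: yeast depleted of Yfh1p frataxin homolog grown on glycerol needing respiration; WST-1 tetrazolium dye reduction as measure of cellular dehydrogenase metabolic activity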
[13] = molecular target: 5-hydroxytryptamine receptor 1E (Homo sapiens, UniProt P28566); assay: Counterscreen assay for S1P3 antagonists: Dose response cell-based high throughput screening assay to identify antagonists of the 5-Hydroxytryptamine Receptor Subtype 1E (5HT1E). [Related pubchem assays: 1429, 485 ]; format: functional
[14] = molecular target: Sphingosine 1-phosphate receptor 3 (Homo sapiens, UniProt Q99500); assay: Dose response cell-based high throughput screening assay for antagonists of the Sphingosine 1-Phosphate Receptor 3 (S1P3). [Related pubchem assays: 1429, 485 ]; format: functional
[15] = molecular target: G2/mitotic-specific cyclin-B1 (Homo sapiens, UniProt P14635); assay: Counterscreen assay for inhibitors of Wee1 degradation: dose response cell-based assay to identify inhibitors of cyclin B degradation. [Related pubchem assays: 1410, 1321 ]; format: functional
[16] = molecular target: Wee1-like protein kinase (Homo sapiens, UniProt P30291); assay: Dose Response Cell-based Assay for Inhibitors of Wee1 Degradation. [Related pubchem assays: 1410, 1321 ]; format: functional
[17] = M. tuberculosis H37Rv growth inhibitors, H37Rv strain (AID 1626); format: functional
[18] = molecular target: Troponin, cardiac muscle (Homo sapiens, UniProt P19429+P45379+P63316); assay: Fluorescence-based biochemical high throughput dose response assay for activators of the calcium sensitivity of cardiac Regulated Thin Filaments (RTF). [Related pubchem assays (depositor defined):AID493008, AID493018, AID504382, AID504383]; format: protein-complex assay
[19] = molecular target: T3, Short transient receptor potential channel 4 (Mus musculus, UniProt Q9QUQ5); assay: calcium entry via TRPC4 opening agents – cell-based, HEK293 TRPC4/mu-opioid, Fluo-4 calcium, dose response (AID 434937); format: functional
T3 sequence (Q9QUQ5 whole entry): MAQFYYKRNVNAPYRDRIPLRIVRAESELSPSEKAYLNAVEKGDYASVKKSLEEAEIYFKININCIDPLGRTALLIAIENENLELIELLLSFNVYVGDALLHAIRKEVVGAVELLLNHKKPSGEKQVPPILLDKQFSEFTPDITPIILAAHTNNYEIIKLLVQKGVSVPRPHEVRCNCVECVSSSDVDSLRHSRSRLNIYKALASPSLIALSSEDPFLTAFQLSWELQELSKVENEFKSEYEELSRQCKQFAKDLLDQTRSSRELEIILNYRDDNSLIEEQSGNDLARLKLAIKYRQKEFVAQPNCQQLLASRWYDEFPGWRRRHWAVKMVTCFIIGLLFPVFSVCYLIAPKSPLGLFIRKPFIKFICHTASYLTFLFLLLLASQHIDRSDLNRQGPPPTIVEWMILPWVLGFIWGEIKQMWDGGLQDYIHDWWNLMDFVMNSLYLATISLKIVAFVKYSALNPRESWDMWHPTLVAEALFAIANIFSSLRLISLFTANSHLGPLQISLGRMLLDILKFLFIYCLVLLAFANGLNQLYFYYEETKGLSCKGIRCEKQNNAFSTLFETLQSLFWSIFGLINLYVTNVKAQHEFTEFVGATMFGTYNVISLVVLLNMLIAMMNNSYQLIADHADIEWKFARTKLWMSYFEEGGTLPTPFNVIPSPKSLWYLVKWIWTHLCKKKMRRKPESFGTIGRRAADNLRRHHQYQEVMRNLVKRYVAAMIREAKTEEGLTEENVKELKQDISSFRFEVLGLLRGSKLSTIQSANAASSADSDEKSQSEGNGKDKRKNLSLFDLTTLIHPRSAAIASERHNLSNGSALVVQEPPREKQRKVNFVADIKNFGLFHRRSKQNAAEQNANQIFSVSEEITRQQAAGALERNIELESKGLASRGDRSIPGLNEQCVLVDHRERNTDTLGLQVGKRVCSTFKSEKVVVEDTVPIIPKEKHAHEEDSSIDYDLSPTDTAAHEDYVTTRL

G2/mitotic-specific cyclin-B1, sequence (P14635 whole entry): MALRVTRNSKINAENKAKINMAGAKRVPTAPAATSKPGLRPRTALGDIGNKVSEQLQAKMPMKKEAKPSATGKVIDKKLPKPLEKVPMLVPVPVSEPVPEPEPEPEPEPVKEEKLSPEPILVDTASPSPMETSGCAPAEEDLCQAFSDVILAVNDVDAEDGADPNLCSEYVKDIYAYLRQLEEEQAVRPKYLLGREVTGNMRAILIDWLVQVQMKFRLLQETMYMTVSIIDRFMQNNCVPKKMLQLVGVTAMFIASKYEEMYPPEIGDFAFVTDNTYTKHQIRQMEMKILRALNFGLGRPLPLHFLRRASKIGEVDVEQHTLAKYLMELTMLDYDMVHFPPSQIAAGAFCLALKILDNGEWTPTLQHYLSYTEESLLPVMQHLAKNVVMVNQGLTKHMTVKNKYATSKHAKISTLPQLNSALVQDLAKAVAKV
Wee1-like protein kinase, sequence (P30291 whole entry): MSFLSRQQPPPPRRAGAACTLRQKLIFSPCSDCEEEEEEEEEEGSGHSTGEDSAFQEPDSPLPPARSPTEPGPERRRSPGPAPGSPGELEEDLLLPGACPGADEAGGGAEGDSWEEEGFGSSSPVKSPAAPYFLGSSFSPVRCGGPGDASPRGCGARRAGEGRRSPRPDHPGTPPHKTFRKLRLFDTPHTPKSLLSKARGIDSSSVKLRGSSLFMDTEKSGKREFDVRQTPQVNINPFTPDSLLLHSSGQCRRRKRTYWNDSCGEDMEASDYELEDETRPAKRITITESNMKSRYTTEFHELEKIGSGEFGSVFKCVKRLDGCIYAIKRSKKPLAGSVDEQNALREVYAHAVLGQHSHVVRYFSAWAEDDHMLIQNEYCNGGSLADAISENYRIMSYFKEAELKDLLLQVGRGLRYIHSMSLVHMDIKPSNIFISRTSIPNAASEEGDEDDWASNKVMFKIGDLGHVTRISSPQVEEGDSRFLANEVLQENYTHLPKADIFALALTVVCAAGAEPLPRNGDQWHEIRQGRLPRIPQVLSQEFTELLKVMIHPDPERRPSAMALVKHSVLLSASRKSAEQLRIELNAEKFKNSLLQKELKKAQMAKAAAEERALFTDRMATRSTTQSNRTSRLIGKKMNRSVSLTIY
Sphingosine 1-phosphate receptor 3, sequence (Q99500 whole entry): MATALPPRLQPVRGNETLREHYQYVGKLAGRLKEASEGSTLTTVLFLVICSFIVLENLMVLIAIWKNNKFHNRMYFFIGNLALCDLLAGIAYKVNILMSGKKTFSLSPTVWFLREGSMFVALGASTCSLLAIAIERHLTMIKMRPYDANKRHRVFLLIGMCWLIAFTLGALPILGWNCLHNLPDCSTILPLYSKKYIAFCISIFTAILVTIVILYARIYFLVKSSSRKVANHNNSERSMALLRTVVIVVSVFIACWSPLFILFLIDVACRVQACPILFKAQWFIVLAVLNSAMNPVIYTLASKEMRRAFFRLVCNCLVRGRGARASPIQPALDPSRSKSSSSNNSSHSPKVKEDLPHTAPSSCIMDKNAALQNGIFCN
Sphingosine 1-phosphate receptor 2, sequence (O95136 whole entry): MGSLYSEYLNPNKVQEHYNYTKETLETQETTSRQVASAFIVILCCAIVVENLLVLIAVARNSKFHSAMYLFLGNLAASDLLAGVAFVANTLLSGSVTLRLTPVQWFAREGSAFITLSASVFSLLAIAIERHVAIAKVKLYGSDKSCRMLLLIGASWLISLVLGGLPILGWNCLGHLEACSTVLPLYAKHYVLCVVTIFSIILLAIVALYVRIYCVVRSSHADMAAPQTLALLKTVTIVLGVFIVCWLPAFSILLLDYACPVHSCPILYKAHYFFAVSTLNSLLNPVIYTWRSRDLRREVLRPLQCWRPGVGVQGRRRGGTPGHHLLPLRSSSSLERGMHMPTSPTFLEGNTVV
5-hydroxytryptamine receptor 1E, sequence (P28566 whole entry): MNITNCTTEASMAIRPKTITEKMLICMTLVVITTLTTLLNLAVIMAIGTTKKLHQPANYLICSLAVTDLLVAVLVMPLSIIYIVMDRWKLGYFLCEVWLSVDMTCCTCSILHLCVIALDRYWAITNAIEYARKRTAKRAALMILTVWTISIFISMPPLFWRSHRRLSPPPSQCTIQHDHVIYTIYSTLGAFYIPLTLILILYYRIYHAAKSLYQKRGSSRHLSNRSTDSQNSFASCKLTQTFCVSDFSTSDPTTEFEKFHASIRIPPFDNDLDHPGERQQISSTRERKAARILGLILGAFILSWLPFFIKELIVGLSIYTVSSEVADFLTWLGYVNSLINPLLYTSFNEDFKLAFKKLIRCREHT

For `Cc1cc(C(=O)CSc2nnnn2C2CC2)c(C)n1Cc1ccccc1`, the EC50 [1] was > 30 µM (not active).

In the case of `CCOC(=O)c1sc(NC(=O)c2sc(C)nc2C)nc1C`, the IC50 [2] is reported as > 39.8 µM (not active).

With `CN1Cc2cc(C(=O)c3cc(Cl)cc(CSc4ncccn4)c3O)cnc2NC1=O` the EC50 [3] was < 0.1 µM (active), the EC50 [4] was 0.449 µM (active) and the EC50 [5] was 13.8 µM (active). The EC50 [6] was 0.812 µM (active), the EC50 [7] was < 0.1 µM (active) and the EC50 [8] was > 150 µM (not active). The IC50 [9] was > 50 µM (not active), the EC50 [10] was > 150 µM (not active) and the EC50 [11] was 0.799 µM (active).

In the case of `Cn1cccc1/C=C1/SC(=S)N(CC(=O)O)C1=O`, the EC50 [12] is reported as > 100 µM (active).

In the case of `O=C(CSc1nnc(-c2cccnc2)n1Cc1ccco1)N1c2ccccc2Sc2ccccc21`, the IC50 [13] is reported as > 50 µM (not active) and the IC50 [14] is reported as > 50 µM (not active).

With `CCN(CC)c1ccc(/C=N/NC(=O)c2ccco2)cc1` the EC50 [15] was > 49.7 µM (not active) and the EC50 [16] was > 49.7 µM (not active).

In the case of `CC(C)(C)C(=O)/C=c1\s/c(=C\c2ccc(-c3ccc([N+](=O)[O-])cc3)o2)c(=O)n1CC(=O)NC(N)=O`, the IC50 [17] is reported as > 100 µM (active), the EC50 [18] is reported as 0.565 µM (active) and the EC50 [19] is reported as 5.31 µM (active).
